# Source: PubChem BioAssay AID2060912 (Molecular Pharmacology Branch, DTP, NCI, 2025)
# System: HUVEC/MSC spheroids viability
# Experiment: Human HUVEC/MSC cell line growth inhibition [KRAS2];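 as to viability, T/C: percent of DMSO vehicle control luminescence so 100% = untreated viability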
# Details: for IC50: curve of first compound; for viability, T/C: stronger effect = lower value
# Outline: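 Spheroids of human HUVEC plus MSCs, without tumor cells, were treated with single agents and combinations. Each drug was tested in half-log steps down from near its clinical Cmax, or from 10 microM when Cmax was unknown. HUVEC and hMSC were used at passage </=5.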
structure (smiles),measurement,setting,value
Cn1ncnc1[C@H]1c2n[nH]c(=O)c3cc(F)cc(c23)N[C@@H]1c1ccc(F)cc1 + C=CC(=O)N1CCN(c2nc(=O)n(-c3c(C)ccnc3C(C)C)c3nc(-c4c(O)cccc4F)c(F)cc23)C(C)C1,IC50,second compound 0.0316 µM,> 100 nM
same,IC50,second compound 0.1 µM,> 100 nM
same,IC50,second compound 0.316 µM,> 100 nM
same,IC50,second compound 1 µM,> 100 nM
same,IC50,second compound 3.16 µM,> 100 nM
same,IC50,second compound 10 µM,> 100 nM
same,"viability, T/C","second compound 0.0316 µM, first compound 0.000316 µM",101%
same,"viability, T/C","second compound 0.0316 µM, first compound 0.001 µM",100%
same,"viability, T/C","second compound 0.0316 µM, first compound 0.00316 µM",74.3%
same,"viability, T/C","second compound 0.0316 µM, first compound 0.01 µM",94.3%
same,"viability, T/C","second compound 0.0316 µM, first compound 0.0316 µM",83.1%
same,"viability, T/C","second compound 0.0316 µM, first compound 0.1 µM",105%
same,"viability, T/C","second compound 0.1 µM, first compound 0.000316 µM",92.6%
same,"viability, T/C","second compound 0.1 µM, first compound 0.001 µM",117%
same,"viability, T/C","second compound 0.1 µM, first compound 0.00316 µM",101%
same,"viability, T/C","second compound 0.1 µM, first compound 0.01 µM",79.5%
same,"viability, T/C","second compound 0.1 µM, first compound 0.0316 µM",96.2%
same,"viability, T/C","second compound 0.1 µM, first compound 0.1 µM",83.5%
same,"viability, T/C","second compound 0.316 µM, first compound 0.000316 µM",110%
same,"viability, T/C","second compound 0.316 µM, first compound 0.001 µM",110%
same,"viability, T/C","second compound 0.316 µM, first compound 0.00316 µM",97.2%
same,"viability, T/C","second compound 0.316 µM, first compound 0.01 µM",97.1%
same,"viability, T/C","second compound 0.316 µM, first compound 0.0316 µM",99.2%
same,"viability, T/C","second compound 0.316 µM, first compound 0.1 µM",114%
same,"viability, T/C","second compound 1 µM, first compound 0.000316 µM",114%
same,"viability, T/C","second compound 1 µM, first compound 0.001 µM",106%
same,"viability, T/C","second compound 1 µM, first compound 0.00316 µM",95.4%
same,"viability, T/C","second compound 1 µM, first compound 0.01 µM",106%
same,"viability, T/C","second compound 1 µM, first compound 0.0316 µM",106%
same,"viability, T/C","second compound 1 µM, first compound 0.1 µM",86%
same,"viability, T/C","second compound 3.16 µM, first compound 0.000316 µM",110%
same,"viability, T/C","second compound 3.16 µM, first compound 0.001 µM",141%
same,"viability, T/C","second compound 3.16 µM, first compound 0.00316 µM",101%
same,"viability, T/C","second compound 3.16 µM, first compound 0.01 µM",140%
same,"viability, T/C","second compound 3.16 µM, first compound 0.0316 µM",130%
same,"viability, T/C","second compound 3.16 µM, first compound 0.1 µM",93.5%
same,"viability, T/C","second compound 10 µM, first compound 0.000316 µM",129%
same,"viability, T/C","second compound 10 µM, first compound 0.001 µM",127%
same,"viability, T/C","second compound 10 µM, first compound 0.00316 µM",112%
same,"viability, T/C","second compound 10 µM, first compound 0.01 µM",103%
same,"viability, T/C","second compound 10 µM, first compound 0.0316 µM",105%
same,"viability, T/C","second compound 10 µM, first compound 0.1 µM",123%
